Experimental data published in patent US20100227853A1, “INHIBITORS OF CYCLIC AMP PHOSPHODIESTERASES” (Trustees of Boston College, priority 2008, published 2010).
One block for each molecule: values may come before it.

What was measured:
[1] = system: PDE4A, PDE4B, PDE4D, PDE7A, PDE7B, PDE8A, PDE3A; test: Summary of PDE inhibitor profile; set-up: key to PDE inhibitor profile (Table 17): (1): Strong PDE4A, PDE4B inhibitor; (2): Strong PDE4A inhibitor; (3): Strong PDE4B, moderate PDE4A inhibitor; (4): Moderate PDE4A, PDE4B inhibitor; (5): Moderate PDE4B inhibitor; key to inhibitor class, Table 16: (1): Weak PDE7A inhibitor; (2): Strong PDE7A inhibitor; (3): Lillte/no activity under conditions used; (4): Weak PDE4A inhibitor; conditions: for PDE inhibitor profile (Table 17): overall classification, Table 17 footnotes
[2] = biological target: T1, PDE7A (Homo sapiens, UniProt Q13946); test: 5FOA growth assay in fission yeast strain expressing PDE7A; format: cell-based; set-up: targets used in the assays are full-length proteins (as opposed to simply the catalytic domain); expressed in transfected cells; host or cells: Schizosaccharomyces pombe, PDE gene integrated in place of cgs2; conditions: unit not given
T1 sequence (Q13946 whole entry, the tested form may be a part): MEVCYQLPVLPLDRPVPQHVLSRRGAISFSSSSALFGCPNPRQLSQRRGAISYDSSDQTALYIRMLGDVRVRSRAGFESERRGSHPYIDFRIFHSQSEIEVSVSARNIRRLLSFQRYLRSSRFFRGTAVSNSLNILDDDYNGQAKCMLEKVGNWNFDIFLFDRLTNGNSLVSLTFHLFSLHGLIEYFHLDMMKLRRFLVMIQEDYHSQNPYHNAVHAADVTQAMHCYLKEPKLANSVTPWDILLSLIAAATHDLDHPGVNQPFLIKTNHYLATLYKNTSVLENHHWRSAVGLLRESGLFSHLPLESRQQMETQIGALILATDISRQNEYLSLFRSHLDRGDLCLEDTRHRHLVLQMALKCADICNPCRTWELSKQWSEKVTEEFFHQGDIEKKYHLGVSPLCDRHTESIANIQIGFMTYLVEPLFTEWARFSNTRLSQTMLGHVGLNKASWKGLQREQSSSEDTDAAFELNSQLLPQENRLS
Description: PDE inhibition allows growth in 5FOA medium as measured by optical density after 48 hours incubation at 30° C. Compound BC12 and six structural analogs were tested for growth stimulation.
Cells were pregrown in EMM medium [MP Biomedicals (Solon, Ohio), 3% glucose, filter-sterilized to avoid carmelization, which would introduce variability into the optical density of the medium] containing from 0 mM to 2.5 mM cAMP (or either 0.5 mM or 1.0 mM cGMP). This was to repress expression of the fbp1-ura4 reporter prior to exposure of cells to 5FOA medium. Cells were grown at 30° C. to exponential phase (approximately 10^7 cells/ml). Cells were collected by centrifugation and resuspended in 5FOA medium, and 25 μl were transferred to 384-well microtiter dishes (untreated, with flat clear bottoms) that had been pre-filled with 25 μl 5FOA medium and pre-pinned with 100 nl of compounds (stock solutions were generally 10 mM). Starting cell concentrations ranged from 0.5×10^5 to 4×10^5 cells/ml depending on the screening strain. […] Other positive control dishes contained 5 mM cAMP in the 5FOA medium for PDEs that lack appropriate control compounds. Cultures were grown for 48 hours at 30° C., sealed in an airtight container with moist paper towels to prevent evaporation. Optical densities (OD600) of cultures were measured using a microplate reader. Bioinformatic analysis of the results to determine composite Z scores was performed as previously described (1, 3).

[3] = biological target: PDE4A (Homo sapiens, UniProt P27815); test: in vitro enzyme assay PDE4A (Table 7); format: biochemical; conditions: 2 micromolar compound; for remaining activity at 2 µM: read-out: percent of PDE activity present, PDE4A
Chain of PDE4A (P27815 whole entry, species assumed): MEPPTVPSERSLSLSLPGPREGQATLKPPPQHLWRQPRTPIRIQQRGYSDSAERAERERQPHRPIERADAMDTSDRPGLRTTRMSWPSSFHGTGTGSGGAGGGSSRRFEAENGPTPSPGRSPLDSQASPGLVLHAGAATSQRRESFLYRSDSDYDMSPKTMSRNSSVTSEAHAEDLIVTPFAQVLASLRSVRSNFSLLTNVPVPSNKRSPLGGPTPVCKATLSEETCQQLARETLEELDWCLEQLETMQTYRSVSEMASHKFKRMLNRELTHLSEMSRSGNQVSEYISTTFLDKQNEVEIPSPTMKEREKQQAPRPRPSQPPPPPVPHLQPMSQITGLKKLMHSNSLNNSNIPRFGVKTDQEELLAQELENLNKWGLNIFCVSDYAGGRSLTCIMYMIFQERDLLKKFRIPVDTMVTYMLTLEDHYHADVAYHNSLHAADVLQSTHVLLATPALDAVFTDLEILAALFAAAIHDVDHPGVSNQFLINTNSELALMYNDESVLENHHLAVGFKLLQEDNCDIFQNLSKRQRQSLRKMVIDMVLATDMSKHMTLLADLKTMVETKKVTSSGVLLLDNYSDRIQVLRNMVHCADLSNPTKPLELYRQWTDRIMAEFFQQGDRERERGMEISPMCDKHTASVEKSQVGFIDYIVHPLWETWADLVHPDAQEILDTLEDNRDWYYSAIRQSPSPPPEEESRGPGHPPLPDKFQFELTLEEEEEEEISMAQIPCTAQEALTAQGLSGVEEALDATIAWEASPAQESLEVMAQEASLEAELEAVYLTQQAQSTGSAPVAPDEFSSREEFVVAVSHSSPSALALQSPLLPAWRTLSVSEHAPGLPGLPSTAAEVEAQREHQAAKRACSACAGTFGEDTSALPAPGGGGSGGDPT

[4] = biological target: PDE4B (Homo sapiens, UniProt Q07343); test: in vitro enzyme assay PDE4B (Table 7); format: biochemical; conditions: 2 micromolar compound; for remaining activity at 2 µM: read-out: percent of PDE activity present, PDE4B
Chain of PDE4B (Q07343 whole entry, species assumed): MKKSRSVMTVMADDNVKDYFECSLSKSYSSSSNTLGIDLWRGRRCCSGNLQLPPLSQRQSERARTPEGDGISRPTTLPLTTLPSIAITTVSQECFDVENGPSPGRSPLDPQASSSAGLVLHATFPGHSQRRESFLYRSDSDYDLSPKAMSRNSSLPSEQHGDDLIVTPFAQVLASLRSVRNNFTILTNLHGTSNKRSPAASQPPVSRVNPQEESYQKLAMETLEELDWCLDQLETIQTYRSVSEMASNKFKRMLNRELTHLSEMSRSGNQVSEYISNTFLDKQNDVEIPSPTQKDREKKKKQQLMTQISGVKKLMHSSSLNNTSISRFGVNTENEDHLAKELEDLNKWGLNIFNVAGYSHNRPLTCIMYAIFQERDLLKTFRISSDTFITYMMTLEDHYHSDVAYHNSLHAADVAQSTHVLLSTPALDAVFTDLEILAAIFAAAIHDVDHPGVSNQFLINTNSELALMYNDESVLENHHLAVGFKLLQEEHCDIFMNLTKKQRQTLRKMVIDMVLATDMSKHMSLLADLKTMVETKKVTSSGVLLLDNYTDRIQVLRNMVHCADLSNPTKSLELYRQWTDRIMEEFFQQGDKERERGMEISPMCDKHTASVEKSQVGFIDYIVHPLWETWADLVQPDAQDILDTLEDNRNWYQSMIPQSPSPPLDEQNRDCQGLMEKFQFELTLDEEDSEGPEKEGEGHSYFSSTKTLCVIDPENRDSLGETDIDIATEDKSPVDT

[5] = biological target: PDE4D (Homo sapiens, UniProt Q08499); test: in vitro enzyme assay PDE4D (Table 7); format: biochemical; conditions: 2 micromolar compound; for remaining activity at 2 µM: read-out: percent of PDE activity present, PDE4D
Chain of PDE4D (Q08499 whole entry): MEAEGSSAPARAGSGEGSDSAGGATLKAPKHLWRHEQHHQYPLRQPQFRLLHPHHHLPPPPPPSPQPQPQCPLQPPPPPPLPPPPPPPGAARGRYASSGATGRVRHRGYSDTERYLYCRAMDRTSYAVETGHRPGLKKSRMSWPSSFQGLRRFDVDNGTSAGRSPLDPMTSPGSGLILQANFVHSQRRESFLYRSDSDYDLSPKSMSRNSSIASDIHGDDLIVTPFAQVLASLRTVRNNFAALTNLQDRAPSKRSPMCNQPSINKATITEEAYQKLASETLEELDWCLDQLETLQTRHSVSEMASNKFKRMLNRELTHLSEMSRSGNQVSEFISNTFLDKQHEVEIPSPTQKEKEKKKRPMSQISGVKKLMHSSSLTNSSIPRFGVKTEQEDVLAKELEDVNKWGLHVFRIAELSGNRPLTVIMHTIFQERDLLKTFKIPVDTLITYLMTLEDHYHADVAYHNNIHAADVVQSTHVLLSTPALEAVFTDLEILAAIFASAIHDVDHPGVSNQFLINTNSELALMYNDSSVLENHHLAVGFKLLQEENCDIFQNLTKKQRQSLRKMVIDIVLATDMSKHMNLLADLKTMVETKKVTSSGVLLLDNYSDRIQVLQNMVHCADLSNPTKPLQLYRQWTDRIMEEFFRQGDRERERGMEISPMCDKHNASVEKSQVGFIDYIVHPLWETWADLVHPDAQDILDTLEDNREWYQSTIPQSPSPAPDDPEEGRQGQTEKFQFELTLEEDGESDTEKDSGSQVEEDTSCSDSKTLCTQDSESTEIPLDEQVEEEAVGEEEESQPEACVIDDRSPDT

[6] = biological target: T1, PDE7A; test: in vitro enzyme assay PDE7A; format: biochemical; set-up: made in house; host or cells: E. coli; conditions: 2 micromolar compound; for remaining activity at 2 µM: read-out: percent of PDE activity present, PDE7A
[7] = biological target: T2, PDE4D2-CAT (Homo sapiens, UniProt Q08499); test: in vitro enzyme assay, catalytic fragment of PDE4D2 (residues 86-413); format: biochemical
T2 construct: 86-413; made in house; host or cells: E. coli
T2 sequence (Q08499 388-715): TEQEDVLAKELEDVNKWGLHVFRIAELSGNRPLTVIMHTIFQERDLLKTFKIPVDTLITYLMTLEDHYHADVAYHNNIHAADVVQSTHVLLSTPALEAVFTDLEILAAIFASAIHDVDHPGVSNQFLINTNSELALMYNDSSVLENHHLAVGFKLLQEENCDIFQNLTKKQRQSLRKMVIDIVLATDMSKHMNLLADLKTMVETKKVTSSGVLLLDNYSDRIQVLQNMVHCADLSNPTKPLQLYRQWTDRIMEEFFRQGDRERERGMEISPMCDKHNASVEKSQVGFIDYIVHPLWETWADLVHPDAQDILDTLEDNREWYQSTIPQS

[8] = system: U937 cells; test: TNF alpha release by LPS-treated U937 cells; format: cell-based; conditions: for TNF alpha, % vehicle control: 10 uM cmpd, 0 uM BC30
[9] = biological target: T3, PDE4B3 (Mus musculus, UniProt Q8VBU5); test: 5FOA growth assay in fission yeast strain expressing PDE4B3; format: cell-based, Murine; conditions: 20 uM
T3 construct: targets used in the assays are full-length proteins (as opposed to simply the catalytic domain); expressed in transfected cells; host or cells: Schizosaccharomyces pombe, PDE gene integrated in place of cgs2
T3 sequence (Q8VBU5 1-721): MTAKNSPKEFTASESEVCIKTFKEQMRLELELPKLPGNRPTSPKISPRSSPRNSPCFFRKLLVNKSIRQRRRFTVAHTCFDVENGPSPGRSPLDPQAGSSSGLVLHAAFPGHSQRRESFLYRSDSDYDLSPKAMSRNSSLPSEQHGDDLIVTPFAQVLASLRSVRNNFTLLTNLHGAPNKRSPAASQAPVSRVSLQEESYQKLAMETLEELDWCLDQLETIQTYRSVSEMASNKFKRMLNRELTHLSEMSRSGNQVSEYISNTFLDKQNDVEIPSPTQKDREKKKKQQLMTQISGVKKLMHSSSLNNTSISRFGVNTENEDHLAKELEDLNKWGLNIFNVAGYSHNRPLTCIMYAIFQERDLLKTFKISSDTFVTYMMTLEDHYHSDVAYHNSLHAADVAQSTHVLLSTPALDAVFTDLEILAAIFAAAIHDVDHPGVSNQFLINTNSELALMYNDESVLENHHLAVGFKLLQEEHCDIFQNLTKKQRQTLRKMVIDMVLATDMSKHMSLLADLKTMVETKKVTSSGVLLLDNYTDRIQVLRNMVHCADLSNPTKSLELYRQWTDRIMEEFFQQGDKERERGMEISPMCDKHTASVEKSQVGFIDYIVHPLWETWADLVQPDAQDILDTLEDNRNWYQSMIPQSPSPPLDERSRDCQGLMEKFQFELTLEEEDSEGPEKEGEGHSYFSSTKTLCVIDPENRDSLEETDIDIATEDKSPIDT
Summary of the method: (§1)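 Fission yeast strains carrying mouse PDE4A1 or PDE4B3 and an fbp1-ura4 reporter were pregrown in EMM with 0.5–2.5 mM cAMP, then seeded at 0.5–4×10^5 cells/ml in 5FOA medium with compound. Growth was read as OD600 after 48 h at 30° C; composite Z scores were derived.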

[10] = biological target: T4, PDE4A1 (Mus musculus, UniProt O89084); test: 5FOA growth assay (high throughput screen, ED50) in fission yeast strain expressing PDE4A1; format: cell-based; conditions: 20 uM; PDE 4A1
T4 construct: targets used in the assays are full-length proteins (as opposed to simply the catalytic domain); expressed in transfected cells; host or cells: Schizosaccharomyces pombe, PDE gene integrated in place of cgs2
T4 sequence (O89084 1-610 isoform O89084-2): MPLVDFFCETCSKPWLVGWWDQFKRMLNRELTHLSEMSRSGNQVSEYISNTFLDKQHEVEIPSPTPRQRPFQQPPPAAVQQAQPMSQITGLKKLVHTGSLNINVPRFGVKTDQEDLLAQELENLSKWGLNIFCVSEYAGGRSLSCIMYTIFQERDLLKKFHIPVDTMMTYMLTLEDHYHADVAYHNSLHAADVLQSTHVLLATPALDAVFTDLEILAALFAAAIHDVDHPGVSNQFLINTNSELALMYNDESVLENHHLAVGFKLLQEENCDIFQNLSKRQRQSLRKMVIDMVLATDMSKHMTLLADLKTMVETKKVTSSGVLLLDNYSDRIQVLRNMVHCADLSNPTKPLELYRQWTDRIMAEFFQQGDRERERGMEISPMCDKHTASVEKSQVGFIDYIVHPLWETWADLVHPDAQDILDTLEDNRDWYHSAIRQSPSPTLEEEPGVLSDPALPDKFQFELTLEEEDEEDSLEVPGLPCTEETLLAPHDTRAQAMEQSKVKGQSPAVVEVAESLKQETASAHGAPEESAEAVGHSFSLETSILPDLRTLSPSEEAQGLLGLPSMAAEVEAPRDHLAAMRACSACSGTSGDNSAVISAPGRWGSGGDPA
Summary of the method: as §1

remaining activity at 2 µM [3]: 26% | remaining activity at 2 µM [4]: 39% | remaining activity at 2 µM [5]: 30% | remaining activity at 2 µM [6]: 88%
SMILES: Cc1nc(N2CCOCC2)c2c(C)c(C(=O)Nc3ccc(F)cc3F)sc2n1 [Compound 58-2]

remaining activity at 2 µM [3]: 84% | remaining activity at 2 µM [4]: 64% | remaining activity at 2 µM [5]: 90% | remaining activity at 2 µM [6]: 98%
SMILES: Cc1c(C(=O)Nc2ccc(F)cc2F)sc2ncnc(N3CCN(C)CC3)c12 [Compound 58-1]

1 Assay (20 uM) 4B3 [9]: 8.4406 ND ND ND ND | ED50, 7A [2]: ND ND inactive ND ND
SMILES: CCOC(=O)c1sc2sc(C(=O)OCC)c(-c3ccco3)c2c1N [Compound 30-1]
inhibitor class, Table 16 [1]: 1441, C04 KM03459 30-1 (4)

1 Assay (20 uM) 4A1 [10]: 29.15 ND ND ND ND | 1 Assay (20 uM) 4B3 ([9]; PDE 4B3): 41.77 ND ND ND ND
SMILES: O=C(O)Cn1c2ccc(Cl)cc2c2nc3ccccc3nc21 [1429, L06]
PDE inhibitor profile (Table 17) [1]: 1429, L06 (4)

Second part, the molecule before the results:

SMILES: CC(C)(C)c1c(C#N)sc2sc(C#N)c(N)c12 [Compound 30-4]
inhibitor class, Table 16 [1]: Maybridge: KM03484 30-4 (3) | ED50, 7A [2]: ND ND weak activity ND ND

SMILES: CCN(CC)c1nc(C)nc2sc(C(=O)Nc3ccc(F)cc3F)c(C)c12 [Compound 58-8]
percent of PDE activity present, PDE4A [3]: 84% | percent of PDE activity present, PDE4B [4]: 56% | percent of PDE activity present, PDE4D [5]: 76% | percent of PDE activity present, PDE7A [6]: 48%

SMILES: N#Cc1sc2sc(C#N)c(-c3ccco3)c2c1N [BC30]
PDE4D catalytic domain, 2 uM cpm ([7]; 2 uM compound): 2583 cpm | In vitro activation of PDE4D catalytic domain, % activity ([7]; 2 micromolar compound, DMSO = 100): 139%

SMILES: CC(C)n1c2ccc(Cl)cc2c2nc3ccccc3nc21 [Compound 35]
TNF ([8]; 3 HOURS): 4383 pg/mL | TNF, % EtOH cntrl ([8]; 3 HOURS): 90.7% | TNF ([8]; 20 HOURS): 11728 pg/mL | TNF, % EtOH cntrl ([8]; 20 HOURS): 85.7% | TNF alpha, % vehicle control ([8]; after 3 h.): 95.8% | TNF alpha, % vehicle control ([8]; after 20 h.): 66.1% | PDE inhibitor profile (Table 17) [1]: 35 (1)

SMILES: Cc1ccc([N+](=O)[O-])cc1S(=O)(=O)N(C)C [BRL]
TNF alpha (EtoH = 100.0) ([8]; 3 HOURS): 92.5 | TNF ([8]; 3 HOURS, high BRL): 4565 pg/mL | TNF, % EtOH cntrl ([8]; 3 HOURS, high BRL): 94.5% | TNF ([8]; 3 HOURS, low BRL): 4491 pg/mL | TNF, % EtOH cntrl ([8]; 3 HOURS, low BRL): 93.0% | TNF alpha (EtoH = 100.0) ([8]; 20 HOURS): 102.6 | TNF ([8]; 20 HOURS, high BRL): 13111 pg/mL | TNF, % EtOH cntrl ([8]; 20 HOURS, high BRL): 95.8% | TNF ([8]; 20 HOURS, low BRL): 12718 pg/mL | TNF, % EtOH cntrl ([8]; 20 HOURS, low BRL): 92.9%

SMILES: CCN(CC)c1nc(C)nc2sc(C(=O)Nc3ccc(F)cc3F)c(C)c12 [Compound 58-6]
remaining activity at 2 µM [3]: 73% | remaining activity at 2 µM [4]: 61% | remaining activity at 2 µM [5]: 68% | percent of PDE activity present, PDE7A [6]: 75%
